# Patent EP3016671B1, “ACTIVELY T[…] PROTEASE-RESISTANT PEPTIDES AS BBB SHUTTLES AND SHUTTLE-CARGO CONSTRUCTS” (Universitat de Barcelona, priority 2013, dated 2015)
# Positions of bridges follow the written chain, without caps; N, C: chain ends. Non-standard residues stand in square brackets, D forms with d. Residues, ends and D or L forms follow the SMILES beside them. Dap = NC[C@H](N)C(=O)O
# How the values were obtained:
# mice [1] = experiment: Acute toxicity (lethality) after intracaudal injection in mice; type: in vivo, Swiss white mice; conditions: six mice, observed up to 24 hours
# Method: (§1) • 1) In zebra fish: The assay was performed by Neuron Bio (Granada). The protocol was based on the assessment of the acute toxicity of substances on zebra fish (Danio rerio) using a static method. This short-term toxicity assay method replicated the guidelines of the document OECD Draft Guideline for the study of chemicals, Fish Embryo Toxicity (FET) Test (30 May, 2006). 5 concentrations were evaluated (4.6, 10, 22, 46 and 100 mg/L) in water containing 0.1% DMSO. A control group (vehicle: water and 0.1 % DMSO) and a group with 3,4-dicloroaniline were set up to make sure test conditions were reproducible. […] Apamin (SEQ ID NO:16) was dissolved in phosphate buffer saline (vehicle) so that 200 µL would contain 50 nmol of this peptide (corresponding to its LD50). Compound with SEQ ID NO:9 was dissolved in the same buffer so that 200 µL would contain 1200 nmol of this peptide (near the solubility limit). A first group of six mice (male, 20±2 g, Swiss white mice) were injected with 200 µL of apamin. A second group of six mice were injected with 200 µL of compound with SEQ ID NO:9. A third group of mice were injected with 200 µL of vehicle.
# [2] = Transport across the BBB, in vitro bovine cell assay (co-culture, transwell); conditions: pH 7.4
# Excerpt: (§2) The evaluation method chosen to test the compounds of formula (I) and (II) of the invention was a cell-based assay consisting of a co-culture of brain endothelial cells and astrocytes, which allows to evaluate or to predict the transport of compounds through the BBB. The co-culture method used was described by Gaillard and de Boer in 2008 (Gaillard, PJ et al. "2B-Trans technology: targeted drug delivery across the blood-brain barrier" Methods Mol Biol 2008, vol. 437 pp. 161-175) and consists in seeding of rat astrocytes in a side of a polycarbonate filter (transwell) and bovine brain endothelial cells on the other side of the filter. Under these conditions endothelial cells are able to reach the confluence mimicking the BBB. […] Is commonly used model for permeation studies and toxicity of compounds across the BBB.
# (§3) The co-culture assay was used to determine the capacity of the constructs cargo-shuttle to cross the BBB. The apparent permeability of the compounds was measured in triplicate at a concentration of 200 µ M for Examples 1, 2, 3, 5, 10, 13, 15, 16, 17 and 19 and at a concentration of 1.75 µM for Example 21. All the assays were performed with transendothelial electrical resistance values equal or higher than 100 Ω · cm^2 and were carried out in the presence of lucifer yellow to assess the integrity of the cell membrane during the test. The permeability tests were performed in Ringer-HEPES buffer at pH 7.4. The compound of interest was dissolved in the buffer to the desired concentration.
# (§4) Once the endothelial cells were confluent on the filters (transwells) these were washed with Ringer-HEPES buffer. The acceptor well was filled with 800 µ L of Ringer-HEPES buffer and the donor well with 200 µL of the solution of the compound to be studied. The system was incubated at 37 °C and 5% CO2 for 2 h. After that time the content of the acceptor and donor compartments were analyzed by HPLC-UV, direct ELISA or fluorescence (depending on cargo anchored to the shuttle). […] The apparent permeability was calculated using the following equation: Papp = (dQ/dt) * (1/A) * (1/CO) (cm/s), where (dQ/dt) is the amount of compound present in the compartment acceptor function of time (nmol/s). A is the area of the filter(cm2) and CO is the initial concentration of the compound applied in the donor compartment (nmol/mL).
# [3] = test system: bovine brain endothelial cells; experiment: as above; conditions: bovine cell model, 2 h, 37 °C, Ringer-HEPES pH 7.4; 200 µM (Example 21: 1.75 µM)
# Excerpt: as §2, §3, §4
# mice [4] = conditions: amount in 200 µL injected; cited from earlier work
# [5] = Stability of the shuttles in human serum; type: in vitro ADME; conditions: 400 µM, HBSS, 37 °C, 90% human serum, 24 h
# Method: Regarding to the stability study in human serum of the BBB-shuttle (examples 1, 2, 3 and 5), the peptides were incubated at a concentration of 400 µM in buffer HBSS at 37 °C in the presence of 90% human serum. At a range of times, 100 µL aliquots were collected to which methanol was added in order to precipitate the serum proteins. Samples were centrifuged, filtered and analyzed by HPLC-UV and MALDI-TOF MS to determine the degree of degradation of the BBB-shuttle. […] The half life of the derivative bearing a single disulfide bond was 3 h (examples 2), whereas that of the linear version was no more than 8 min.
# [6] = PAMPA assay (passive diffusion); type: in vitro ADME; conditions: 400 µM, pH 7.4, 4 h, 20°C, four replicates
# Method: The buffer was prepared from the concentrated solution by plON, following the manufacturer's instructions. The pH was adjusted to 7.4 using a solution of 0.5 M NaOH. The PAMPA sandwich was separated, and the donor well was filled with 195 µL of the compound with SEQ ID NO 9 (400 µM) solution and a stirring magnet was added. The acceptor plate was then placed into the donor plate. Next, 4 µL of the 20 mg/mL phospholipid mixture (PBLEP) in dodecane was added to the filter of each well, and 200 µL of buffer solution was added to each acceptor well. The plate was then covered. Four replicates were performed for each compound. The PAMPA plate was incubated for 4 h at 20°C and under saturated atmosphere in a GUT-BOXTM apparatus under an agitation vigorous enough to reduce the unstirred water layer (UWL) to 25 µm. After the incubation, the sandwich was separated, and an aliquot of each donor and acceptor well was analyzed by RP-HPLC-UV ad MALDI-TOF MS.
# [7] = Evidences of active transport in the bovine cell model (NaN3 inhibition, saturation, 4 °C, abluminal-luminal); type: in vitro ADME; conditions: bovine; 200 µM, 37 °C, 2 h, abluminal compartment as donor
# Method: (§5) 1) NaN3 inhibition: Sodium azide (NaN3) is an inhibitor of the resipiratory pathway and, therefore, decreases energy-dependent processes such as transcytosis. […] 2) saturation: Three concentrations of the compound with SEQ ID NO9 were assayed following the procedure of the Example 28.
# (§6) The results are consistent with a saturable transport mechanism considering the plateau region has been reached at 100 µM. 3) dramatic decrease in permeability at reduced temperature: The procedure of the Example 28 was followed until the endothelial cells were confluent. To perform the experiment, the filters (transwells) were washed with Ringer-HEPES buffer. The abluminal compartment was filled with 800 µL of Ringer-HEPES and the luminal compartment was filled with 200 µL of the compound with SEQ ID NO 9 in Ringer-HEPES (200 µM). The system was incubated at 4 °C and 5 % CO2 for 2 h. […] The permeability at 4 °C is 0.23±0.04)·10^-6 cm/s, which is dramatically lower (P < 0.0001, unpaired t-test) than at 37 °C. This low transport is consistent with an energy-dependent process. 4) luminal-abluminal transport > abluminal-luminal transport.: The procedure of the Example 28 was followed until the endothelial cells were confluent. […] The abluminal compartment (in this experiment the donor) was filled with 800 µL of the compound with SEQ ID NO 9 in Ringer-HEPES (200 µM) and the luminal compartment (in this experiment the acceptor) with 200 µL Ringer-HEPES.
# [8] = test system: bovine brain endothelial cells; experiment: as above; type: in vitro ADME; conditions: for Relative transport: saturation
# Method: as §5, §6
# [9] = Solubility limit in phosphate buffer saline (dosing solution); type: physicochemical; conditions: in 200 µL phosphate buffer saline
# Method: as §1
# zebra fish (Danio rerio) = experiment: Acute toxicity in zebra fish, Fish Embryo Toxicity (FET) test; type: in vivo; conditions: static method, 4.6, 10, 22, 46 and 100 mg/L in water containing 0.1% DMSO
# Method: as §1
# [10] = Transport across the BBB, in vitro human cell assay (co-culture, transwell); type: in vitro ADME; conditions: human cell model, 37 °C, Ringer-HEPES pH 7.4, 200 µM peptides, 25 nM Examples 22 and 23, 30 nM Example 24, 5 nM Example 25, read-out: Papp (x 10^6)
# Method: (§7) Due to the great interest to know whether the cargo-BBB shuttle conjugates would be transported across human brain endothelial cells, some of the most relevant cargoes for therapy and diagnosis were assayed in a novel human-based BBB cell model. In this case, the co-culture method used was described by Cecchelli et al. (Cecchelli et al. PloS One. 2014. vol9. pp. e99733) and consists in seeding bovine pericytes in the bottom of a 12-well plate and human endothelial cells derived from hematopoietic stem cells on a transwell filter.
# (§8) The compound of interest was disolved or buffer-exhanged and diluted to the desired concentration.
# (§9) Cetuximab and cetuximab conjugates were radiolabelled to be assayed in the cell model. Pierce^(R) iodination beads were used following the instructions provided by the manufacturer.
# (§10) The apparent permeability was calculated using the same equation as for the bovine cell model.
# [11] = test system: human endothelial cells derived from hematopoietic stem cells; experiment: as above; type: in vitro ADME; conditions: human cell model, 37 °C, Ringer-HEPES pH 7.4, 200 µM peptides, 25 nM Examples 22 and 23, 30 nM Example 24, 5 nM Example 25
# Method: as §7, §8, §9, §10
smiles,measurement,setting,value
"CC(C)C[C@@H]1NC(=O)[C@H](C)NC(=O)[C@H]([C@@H](C)O)NC(=O)[C@H](CCC(=O)O)NC(=O)[C@@H]2CCCN2C(=O)[C@H](C)NC(=O)[C@H](CCCCN)NC(=O)[C@@H]2CSSC[C@@H](C(=O)N[C@@H](CCC(N)=O)C(=O)N[C@@H](CCC(N)=O)C(=O)N[C@@H](Cc3cnc[nH]3)C(N)=O)NC(=O)[C@H](CCCNC(=N)N)NC(=O)[C@H](CCCNC(=N)N)NC(=O)[C@H](C)NC(=O)[C@H](CSSC[C@H](N)C(=O)N[C@@H](CC(N)=O)C(=O)N2)NC1=O [Comparative example 1, H-Cys-Asn-Cys-Lys-Ala-Pro-Glu-Thr- Ala-Leu-Cys-Ala-Arg-Arg-Cys-Gln-Gln-His-NH2, reference compound]",animals that died,mice [1]; 50 nmol in 200 µL,two
same,animals that showed convulsions during the first hours,mice [1]; 50 nmol in 200 µL,All the animals
same,Papp,[2],0.8 ± 0.1 ×10⁻⁶ cm/s
same,Transport (%) (2h),[3],0.9±0.2%
same,LD50,mice [4],50 nmol
"CC(C)C[C@@H]1NC(=O)[C@H](C)NC(=O)[C@H]([C@@H](C)O)NC(=O)[C@H](CCC(=O)O)NC(=O)[C@@H]2CCCN2C(=O)[C@H](C)NC(=O)[C@H](CCCCN)NC(=O)[C@@H]2CSSC[C@@H](C(=O)N[C@@H](Cc3c[nH]cn3)C(N)=O)NC(=O)[C@H](C)NC(=O)[C@H](C)NC(=O)[C@H](C)NC(=O)[C@H](CSSC[C@H](N)C(=O)N[C@@H](CC(N)=O)C(=O)N2)NC1=O [Example 1, H-Cys-Asn-Cys-Lys-Ala-Pro-Glu-Thr-Ala-Leu-Cys-Ala-Ala-Ala-Cys-His-NH2] (H-CNCKAPETALCAAACH-NH2; disulfide 1-11, 3-15)",degradation in human serum,[5],No degradation
same,detection in PAMPA by HPLC-UV,[6],could not be detected
same,detection in PAMPA by MALDI-TOF MS,[6],only in two out of four replicates was found
same,animals that died,mice [1]; 1200 nmol in 200 µL,no animal
same,animals that showed any envenomation symptoms,mice [1]; 1200 nmol in 200 µL,no animal
same,Papp at 2 h,[2]; bovine,2.7 ± 0.3 ×10⁻⁶ cm/s
same,Transport (%) (2h),[3],3.2±0.3%
same,"Papp B→A at 2 h, 200 µM",[7],1.06 ± 0.03 ×10⁻⁶ cm/s
same,permeability at 4 °C,"[8]; 200 µM, 4 °C, 5 % CO2, 2 h, luminal to abluminal",0.23±0.04 ·10^-6 cm/s
same,transport after NaN3 treatment,[8]; 30 min treatment with 1.5 mM sodium azide prior to the permeability assay,very significantly (p < 0.001) inhibited
same,Relative transport,[8]; concentration 100 µM,100±39
same,Relative transport,[8]; concentration 200 µM,110±6
same,Relative transport,[8]; concentration 500 µM,86±6
same,solubility limit,[9],~1200 nmol
same,lethal parameters of the embryos,zebra fish (Danio rerio),None of the lethal parameters studied in the embrios treated with the compound with SEQ ID NO:9 was different from those treated with the vehicle
"CC[C@H](C)[C@H](NC(=O)[C@H](CCC(=O)O)NC(=O)[C@@H](NC(=O)[C@H](CCC(N)=O)NC(=O)[C@H](CCCCN)NC(=O)[C@@H]1CC(=O)NC[C@H](N)C(=O)N[C@@H](CCCCN)C(=O)N[C@@H](C)C(=O)N2CCC[C@H]2C(=O)N[C@@H](CCC(=O)O)C(=O)N[C@@H]([C@@H](C)O)C(=O)N[C@@H](C)C(=O)N[C@@H](CC(C)C)C(=O)N1)[C@@H](C)CC)C(=O)N[C@@H](CCCCN)C(=O)N[C@@H](CCCCN)C(=O)N[C@@H](Cc1ccccc1)C(=O)N[C@@H](CCCCN)C(N)=O [Example 27, H-Dap-Lys-Ala-Pro-Glu-Thr-Ala-Leu-Asp-Lys-Gln-Ile-Glu-Ile-Lys-Lys-Phe-Lys-NH2] (H-[Dap]KAPETALDKQIEIKKFK-NH2; lactam 1-9)",Papp at 2 h,[10],1.9 ± 0.1 ×10⁻⁶ cm/s
same,Transport (%) (2h),[11],3.1±0.2%
